Common to all, as to format: functional
The test system of experiment [1] is Staphylococcus aureus. Kind of experiment: Antibacterial activity against Staphylococcus aureus ATCC 33591.
The test system of experiment [2] is Staphylococcus aureus. Kind of experiment: Antibacterial activity against Staphylococcus aureus ATCC 49951.
For experiment [3], the system named is Staphylococcus aureus. Kind of experiment: Antibacterial activity against Staphylococcus aureus ATCC 29213.
In experiment [4] the test system is Enterococcus faecalis. Kind of experiment: Antibacterial activity against Enterococcus faecalis ATCC 29212.
Experiment [5] deals with Enterococcus faecalis. Kind of experiment: Antibacterial activity against Enterococcus faecalis NCTC 12201.
Experiment [6] deals with Enterococcus faecium. Kind of experiment: Antibacterial activity against Enterococcus faecium ATCC 12202.

Results on 21 molecules are retold here after ChEMBL document CHEMBL1143801, “Synthesis, SAR and antibacterial studies on novel chalcone oxazolidinone hybrids” (2007).

The structures appear in SMILES notation. ≈ marks a conversion by molar mass, not a printed value. A value given as a limit tells only on which side of the number the result lay.

As usually defined, the MIC is the lowest concentration found to suppress growth. Lower therefore signals a more susceptible organism. On to `COc1ccc(/C=C/C(=O)c2ccc(N3C[C@H](CNC(C)=O)OC3=O)cc2)cc1OC`, for which the MIC in experiment [1], in experiment [2], in experiment [3], in experiment [4], in experiment [5] and in experiment [6] was greater than 32 µg/mL each time.
As to `CC(=O)NC[C@H]1CN(c2ccc(/C=C/C(=O)c3ccccc3)cc2)C(=O)O1`, the MIC in experiment [1], in experiment [2], in experiment [3], in experiment [4], in experiment [5] and in experiment [6] was greater than 32 µg/mL each time.
Turning to `CC(=O)NC[C@H]1CN(c2ccc(/C=C/C(=O)c3c(F)cc(Cl)cc3Cl)cc2)C(=O)O1`, the MIC in experiment [1], in experiment [2], in experiment [3], in experiment [4], in experiment [5] and in experiment [6] was greater than 32 µg/mL throughout.
In the case of `CC(=O)NC[C@H]1CN(c2ccc(C(=O)/C=C/c3ncc[nH]3)c(F)c2)C(=O)O1`, the MIC in experiment [1], in experiment [2], in experiment [3], in experiment [4], in experiment [5] and in experiment [6] was 16 µg/mL (≈ 43 µM) in each case.
In the case of `CC(=O)NC[C@H]1CN(c2ccc(/C=C/C(=O)c3ccc(C)cc3)cc2)C(=O)O1`, the minimal inhibitory concentration (MIC) in experiment [1] was 32 µg/mL (≈ 84.6 µM); in experiment [2] it was 32 µg/mL (≈ 84.6 µM); in experiment [3] it was greater than 32 µg/mL; in experiment [4] it was 32 µg/mL (≈ 84.6 µM); in experiment [5], 32 µg/mL (≈ 84.6 µM); in experiment [6], 32 µg/mL (≈ 84.6 µM).
With `COC(=O)c1ccc(/C=C/C(=O)c2ccc(N3C[C@H](CNC(C)=O)OC3=O)cc2)cc1`, the MIC in experiment [1], in experiment [2], in experiment [3], in experiment [4], in experiment [5] and in experiment [6] was greater than 32 µg/mL throughout.
In the case of `CC(=O)NC[C@H]1CN(c2ccc(C(=O)/C=C/c3ccco3)cc2)C(=O)O1`, the MIC was 32 µg/mL (≈ 90.3 µM) in experiment [1]; 16 µg/mL (≈ 45.2 µM) in experiment [2]; 16 µg/mL (≈ 45.2 µM) in experiment [3]; 32 µg/mL (≈ 90.3 µM) in experiment [4]; 32 µg/mL (≈ 90.3 µM) in experiment [5]; 32 µg/mL (≈ 90.3 µM) in experiment [6].
Take `CC(=O)NC[C@H]1CN(c2ccc(C(=O)/C=C/c3ccco3)c(F)c2)C(=O)O1`: the minimal inhibitory concentration (MIC) in experiment [1] was determined as 8 µg/mL (≈ 21.5 µM); in experiment [2], 8 µg/mL (≈ 21.5 µM); in experiment [3], 8 µg/mL (≈ 21.5 µM); in experiment [4] it was 16 µg/mL (≈ 43 µM); in experiment [5], 16 µg/mL (≈ 43 µM); in experiment [6], 16 µg/mL (≈ 43 µM).
Turning to `CC(=O)NC[C@H]1CN(c2ccc(C(=O)/C=C/c3cccs3)c(F)c2)C(=O)O1`, the MIC in experiment [1], in experiment [2], in experiment [3], in experiment [4], in experiment [5] and in experiment [6] was 32 µg/mL (≈ 82.4 µM) throughout.
With `CC(=O)NC[C@H]1CN(c2ccc(C(=O)/C=C/c3nccn3C)c(F)c2)C(=O)O1`, the MIC in experiment [1], in experiment [2], in experiment [3], in experiment [4], in experiment [5] and in experiment [6] was 32 µg/mL (≈ 82.8 µM) in each case.
As to `COc1cc(/C=C/C(=O)c2ccc(N3C[C@H](CNC(C)=O)OC3=O)cc2)cc(OC)c1OC`, the MIC in experiment [1], in experiment [2], in experiment [3], in experiment [4], in experiment [5] and in experiment [6] was greater than 32 µg/mL throughout.
With `CC(=O)NC[C@H]1CN(c2ccc(C(=O)/C=C/c3ccccn3)c(F)c2)C(=O)O1`, the MIC was 4 µg/mL (≈ 10.4 µM) in experiment [1]; 4 µg/mL (≈ 10.4 µM) in experiment [2]; 8 µg/mL (≈ 20.9 µM) in experiment [3]; 16 µg/mL (≈ 41.7 µM) in experiment [4]; 16 µg/mL (≈ 41.7 µM) in experiment [5]; 16 µg/mL (≈ 41.7 µM) in experiment [6].
For `CC(=O)NC[C@H]1CN(c2ccc(/C=C/C(=O)c3cccc(F)c3)cc2)C(=O)O1`, the MIC in experiment [1] was 64 µg/mL (≈ 167 µM); in experiment [2], greater than 64 µg/mL; in experiment [3], greater than 64 µg/mL; in experiment [4] it was greater than 64 µg/mL; in experiment [5], greater than 64 µg/mL; in experiment [6], greater than 64 µg/mL.
For `CC(=O)NC[C@H]1CN(c2ccc(/C=C/C(=O)c3ccc([N+](=O)[O-])cc3)cc2)C(=O)O1`, the MIC in experiment [1], in experiment [2], in experiment [3], in experiment [4], in experiment [5] and in experiment [6] was 32 µg/mL (≈ 78.2 µM) each time.
Take `CC(=O)NC[C@H]1CN(c2ccc(C(=O)/C=C/c3ccc(F)cc3)cc2)C(=O)O1`: the MIC in experiment [1], in experiment [2], in experiment [3], in experiment [4], in experiment [5] and in experiment [6] was greater than 32 µg/mL throughout.
With `COc1ccc(C(=O)/C=C/c2ccc(N3C[C@H](CNC(C)=O)OC3=O)cc2)cc1`, the MIC in experiment [1], in experiment [2], in experiment [3], in experiment [4], in experiment [5] and in experiment [6] was greater than 32 µg/mL each time.
With `COC(=S)NC[C@H]1CN(c2ccc(C(=O)/C=C/c3ccccn3)c(F)c2)C(=O)O1`, the minimum inhibitory concentration (MIC) in experiment [1] is 0.25 µg/mL (≈ 0.602 µM); in experiment [2], 1 µg/mL (≈ 2.41 µM); in experiment [3], 0.5 µg/mL (≈ 1.2 µM); in experiment [4], 2 µg/mL (≈ 4.81 µM); in experiment [5], 1 µg/mL (≈ 2.41 µM); in experiment [6], 2 µg/mL (≈ 4.81 µM).
On to `CC(=O)NC[C@H]1CN(c2ccc(C(=O)/C=C/c3ccccn3)cc2)C(=O)O1`, for which the MIC came out at 32 µg/mL (≈ 87.6 µM) in experiment [1]; 32 µg/mL (≈ 87.6 µM) in experiment [2]; 32 µg/mL (≈ 87.6 µM) in experiment [3]; 64 µg/mL (≈ 175 µM) in experiment [4]; 64 µg/mL (≈ 175 µM) in experiment [5]; 64 µg/mL (≈ 175 µM) in experiment [6].
With `CC(=O)NC[C@H]1CN(c2ccc(C(=O)/C=C/c3ccccc3)cc2)C(=O)O1`, the MIC in experiment [1], in experiment [2], in experiment [3], in experiment [4], in experiment [5] and in experiment [6] was greater than 32 µg/mL in each case.
For the molecule `CC(=O)NC[C@H]1CN(c2ccc(N3CCOCC3)c(F)c2)C(=O)O1` [LINEZOLID], the MIC amounted to 1 µg/mL (≈ 2.96 µM) in experiment [1] and 2 µg/mL (≈ 5.93 µM) in experiment [6].
For `CN[C@H](CC(C)C)C(=O)N[C@H]1C(=O)N[C@@H](CC(N)=O)C(=O)N[C@H]2C(=O)N[C@H]3C(=O)N[C@H](C(=O)N[C@H](C(=O)O)c4cc(O)cc(O)c4-c4cc3ccc4O)[C@H](O)c3ccc(c(Cl)c3)Oc3cc2cc(c3O[C@@H]2O[C@H](CO)[C@@H](O)[C@H](O)[C@H]2O[C@H]2C[C@](C)(N)[C@H](O)[C@H](C)O2)Oc2ccc(cc2Cl)[C@H]1O` [VANCOMYCIN], the MIC in experiment [4] was 2 µg/mL (≈ 1.38 µM); in experiment [5], greater than 32 µg/mL; in experiment [6], greater than 32 µg/mL.
